“And” between values parts separate entries of the source, which are not always exact repeats. Identical values can stand only once.
System: 945468-187-T-J3-PDC spheroids with HUVEC/MSC, viability
Assay: Anticancer human tumor 945468-187-T-J3-PDC patient-derived rectal carcinoma cell line growth inhibition [PI3K]
Settings: for viability, T/C: stronger effect = lower value
Procedure, shortened: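 Tumor cells grown as multi-cell spheroids with HUVEC endothelial cells and MSC fibroblast-like stroma were treated with targeted agents combined with inavolisib, alpelisib, duvelisib or copanlisib. Doses fell in half-log steps from near clinical Cmax, else from 10 microM. Viability was measured.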

[1] = curve of first compound, second compound 0.00316 µM
[2] = curve of first compound, second compound 0.01 µM
[3] = curve of first compound, second compound 0.0316 µM
[4] = curve of first compound, second compound 0.1 µM
[5] = curve of first compound, second compound 0.316 µM
[6] = curve of first compound, second compound 1 µM
[7] = second compound 0.00316 µM, first compound 0.0316 µM
[8] = second compound 0.00316 µM, first compound 0.1 µM
[9] = second compound 0.00316 µM, first compound 0.316 µM
[10] = second compound 0.00316 µM, first compound 1 µM
[11] = second compound 0.00316 µM, first compound 3.16 µM
[12] = second compound 0.00316 µM, first compound 10 µM
[13] = second compound 0.01 µM, first compound 0.0316 µM
[14] = second compound 0.01 µM, first compound 0.1 µM
[15] = second compound 0.01 µM, first compound 0.316 µM
[16] = second compound 0.01 µM, first compound 1 µM
[17] = second compound 0.01 µM, first compound 3.16 µM
[18] = second compound 0.01 µM, first compound 10 µM
[19] = second compound 0.0316 µM, first compound 0.0316 µM
[20] = second compound 0.0316 µM, first compound 0.1 µM
[21] = second compound 0.0316 µM, first compound 0.316 µM
[22] = second compound 0.0316 µM, first compound 1 µM
[23] = second compound 0.0316 µM, first compound 3.16 µM
[24] = second compound 0.0316 µM, first compound 10 µM
[25] = second compound 0.1 µM, first compound 0.0316 µM
[26] = second compound 0.1 µM, first compound 0.1 µM
[27] = second compound 0.1 µM, first compound 0.316 µM
[28] = second compound 0.1 µM, first compound 1 µM
[29] = second compound 0.1 µM, first compound 3.16 µM
[30] = second compound 0.1 µM, first compound 10 µM
[31] = second compound 0.316 µM, first compound 0.0316 µM
[32] = second compound 0.316 µM, first compound 0.1 µM
[33] = second compound 0.316 µM, first compound 0.316 µM
[34] = second compound 0.316 µM, first compound 1 µM
[35] = second compound 0.316 µM, first compound 3.16 µM
[36] = second compound 0.316 µM, first compound 10 µM
[37] = second compound 1 µM, first compound 0.0316 µM
[38] = second compound 1 µM, first compound 0.1 µM
[39] = second compound 1 µM, first compound 0.316 µM
[40] = second compound 1 µM, first compound 1 µM
[41] = second compound 1 µM, first compound 3.16 µM
[42] = second compound 1 µM, first compound 10 µM
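Note: spheroids exposed to agents for 7 days before viability read.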
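Throughout, for viability, T/C: 100% = DMSO vehicle control viability.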

`CNC(=O)c1ccc(N2C(=S)N(c3ccc(C#N)c(C(F)(F)F)c3)C(=O)C2(C)C)cc1F` + COc1c(OCCCN2CCOCC2)ccc2c3n(c(=NC(=O)c4cnc(N)nc4)nc12)CCN3 was tested, and the IC50 [1] was > 10000 nM, the IC50 [2] was > 10000 nM and the IC50 [3] was > 10000 nM. For the same compound, the IC50 [4] was < 31.6 nM, the IC50 [5] was < 31.6 nM and the IC50 [6] was < 31.6 nM. The viability, T/C [7] was 102%, the viability, T/C [8] was 94.3% and the viability, T/C [9] was 98.5%. It also gave a viability, T/C [10] of 84.6%, a viability, T/C [11] of 98.2% and a viability, T/C [12] of 99.9%. For the same compound, the viability, T/C [13] was 98.9%, the viability, T/C [14] was 97.1% and the viability, T/C [15] was 90%. It also gave a viability, T/C [16] of 95.2%, a viability, T/C [17] of 100% and a viability, T/C [18] of 117%. The viability, T/C [19] was 101%, the viability, T/C [20] was 103% and the viability, T/C [21] was 96.7%. For the same compound, the viability, T/C [22] was 104%, the viability, T/C [23] was 111% and the viability, T/C [24] was 98%. For the same compound, the viability, T/C [25] was 44.1%, the viability, T/C [26] was 39.7% and the viability, T/C [27] was 46.2%. The viability, T/C [28] was 53.9%, the viability, T/C [29] was 64.6% and the viability, T/C [30] was 51.5%. The viability, T/C [31] was 25.1%, the viability, T/C [32] was 26.6% and the viability, T/C [33] was 22.8%. For the same compound, the viability, T/C [34] was 23.4%, the viability, T/C [35] was 28.4% and the viability, T/C [36] was 28.5%. The viability, T/C [37] was 17.5%, the viability, T/C [38] was 21.3% and the viability, T/C [39] was 14.4%. It also gave a viability, T/C [40] of 21.6%, a viability, T/C [41] of 17.8% and a viability, T/C [42] of 16.9%.
With `CC(=O)c1c(C)c2cnc(Nc3ccc(N4CCNCC4)cn3)nc2n(C2CCCC2)c1=O` + CC(Nc1ccc2c(c1)OCCn1cc(N3C(=O)OCC3C(F)F)nc1-2)C(N)=O the IC50 [1] was > 100 nM, the IC50 [2] was > 100 nM and the IC50 [3] was > 100 nM. For the same compound, the IC50 [4] was > 100 nM, the IC50 [5] was > 100 nM and the IC50 [6] was 77.5 nM. The viability, T/C (second compound 0.00316 µM, first compound 0.000316 µM) was 90.5%, the viability, T/C (second compound 0.00316 µM, first compound 0.001 µM) was 100% and the viability, T/C (second compound 0.00316 µM, first compound 0.00316 µM) was 94.9%. The viability, T/C (second compound 0.00316 µM, first compound 0.01 µM) was 99.2%, the viability, T/C [7] was 108% and the viability, T/C [8] was 110%. The viability, T/C (second compound 0.01 µM, first compound 0.000316 µM) was 97.6%, the viability, T/C (second compound 0.01 µM, first compound 0.001 µM) was 104% and the viability, T/C (second compound 0.01 µM, first compound 0.00316 µM) was 101%. The viability, T/C (second compound 0.01 µM, first compound 0.01 µM) was 110%, the viability, T/C [13] was 109% and the viability, T/C [14] was 103%. The viability, T/C (second compound 0.0316 µM, first compound 0.000316 µM) was 108%, the viability, T/C (second compound 0.0316 µM, first compound 0.001 µM) was 104% and the viability, T/C (second compound 0.0316 µM, first compound 0.00316 µM) was 92.8%. It also gave a viability, T/C (second compound 0.0316 µM, first compound 0.01 µM) of 116%, a viability, T/C [19] of 101% and a viability, T/C [20] of 123%. It also gave a viability, T/C (second compound 0.1 µM, first compound 0.000316 µM) of 110%, a viability, T/C (second compound 0.1 µM, first compound 0.001 µM) of 111% and a viability, T/C (second compound 0.1 µM, first compound 0.00316 µM) of 104%. It also gave a viability, T/C (second compound 0.1 µM, first compound 0.01 µM) of 118%, a viability, T/C [25] of 115% and a viability, T/C [26] of 119%. It also gave a viability, T/C (second compound 0.316 µM, first compound 0.000316 µM) of 118%, a viability, T/C (second compound 0.316 µM, first compound 0.001 µM) of 100% and a viability, T/C (second compound 0.316 µM, first compound 0.00316 µM) of 90.1%. The viability, T/C (second compound 0.316 µM, first compound 0.01 µM) was 101%, the viability, T/C [31] was 104% and the viability, T/C [32] was 81.5%. The viability, T/C (second compound 1 µM, first compound 0.000316 µM) was 83.1%, the viability, T/C (second compound 1 µM, first compound 0.001 µM) was 67.9% and the viability, T/C (second compound 1 µM, first compound 0.00316 µM) was 64.7%. It also gave a viability, T/C (second compound 1 µM, first compound 0.01 µM) of 80.6%, a viability, T/C [37] of 74.8% and a viability, T/C [38] of 43.2%.
In the case of `C[C@@H](NC(=O)c1ncnc(N)c1Cl)c1ncc(C(=O)Nc2cc(C(F)(F)F)c(Cl)cn2)s1` + COc1c(OCCCN2CCOCC2)ccc2c3n(c(=NC(=O)c4cnc(N)nc4)nc12)CCN3, the IC50 [1] is reported as > 10000 nM, the IC50 [2] is reported as > 10000 nM and the IC50 [3] is reported as > 10000 nM. For the same compound, the IC50 [4] was < 31.6 nM, the IC50 [5] was < 31.6 nM and the IC50 [6] was < 31.6 nM. It also gave a viability, T/C [7] of 89.2%, a viability, T/C [8] of 101% and a viability, T/C [9] of 97.1%. The viability, T/C [10] was 104%, the viability, T/C [11] was 98.4% and the viability, T/C [12] was 95.9%. It also gave a viability, T/C [13] of 118%, a viability, T/C [14] of 91.7% and a viability, T/C [15] of 101%. The viability, T/C [16] was 99.3%, the viability, T/C [17] was 94.6% and the viability, T/C [18] was 90.3%. It also gave a viability, T/C [19] of 94.5%, a viability, T/C [20] of 101% and a viability, T/C [21] of 83.8%. The viability, T/C [22] was 95%, the viability, T/C [23] was 92% and the viability, T/C [24] was 102%. For the same compound, the viability, T/C [25] was 34.8%, the viability, T/C [26] was 42.1% and the viability, T/C [27] was 39%. For the same compound, the viability, T/C [28] was 45.5%, the viability, T/C [29] was 45.6% and the viability, T/C [30] was 51.8%. The viability, T/C [31] was 19.7%, the viability, T/C [32] was 22.8% and the viability, T/C [33] was 19.8%. The viability, T/C [34] was 18.2%, the viability, T/C [35] was 20.8% and the viability, T/C [36] was 21.4%. It also gave a viability, T/C [37] of 17.3%, a viability, T/C [38] of 17.7% and a viability, T/C [39] of 17.4%. For the same compound, the viability, T/C [40] was 16.1%, the viability, T/C [41] was 19% and the viability, T/C [42] was 19.9%.
`CC1(C)CCC(CN2CCN(c3ccc(C(=O)NS(=O)(=O)c4ccc(NCC5CCOCC5)c([N+](=O)[O-])c4)c(Oc4cnc5[nH]ccc5c4)c3)CC2)=C(c2ccc(Cl)cc2)C1` was tested, and the viability, T/C (compound 0.0316 µM) was 105% [middle of 4 runs], the viability, T/C (compound 0.1 µM) was 110% [middle of 4 runs] and the viability, T/C (compound 0.316 µM) was 101% [middle of 4 runs]. The viability, T/C (compound 1 µM) was 112% [middle of 4 runs], the viability, T/C (compound 3.16 µM) was 130% [middle of 4 runs] and the IC50 (curve of compound) was > 10000 nM and 7280 nM and 6400 nM.
For `C#Cc1c(F)ccc2cc(O)cc(-c3ncc4c(N5CC6CCC(C5)N6)nc(OCC56CCCN5CC(F)C6)nc4c3F)c12` (centres undefined) + COc1c(OCCCN2CCOCC2)ccc2c3n(c(=NC(=O)c4cnc(N)nc4)nc12)CCN3, the IC50 [1] was > 10000 nM, the IC50 [2] was > 10000 nM and the IC50 [3] was > 10000 nM. The IC50 [4] was < 31.6 nM, the IC50 [5] was < 31.6 nM and the IC50 [6] was < 31.6 nM. The viability, T/C [7] was 102%, the viability, T/C [8] was 95.9% and the viability, T/C [9] was 98.6%. For the same compound, the viability, T/C [10] was 94.2%, the viability, T/C [11] was 108% and the viability, T/C [12] was 117%. For the same compound, the viability, T/C [13] was 98.1%, the viability, T/C [14] was 97.2% and the viability, T/C [15] was 96.6%. For the same compound, the viability, T/C [16] was 89%, the viability, T/C [17] was 104% and the viability, T/C [18] was 98%. For the same compound, the viability, T/C [19] was 79.6%, the viability, T/C [20] was 88.2% and the viability, T/C [21] was 91.3%. The viability, T/C [22] was 87.2%, the viability, T/C [23] was 69.9% and the viability, T/C [24] was 57.6%. The viability, T/C [25] was 37.4%, the viability, T/C [26] was 42.2% and the viability, T/C [27] was 46.3%. It also gave a viability, T/C [28] of 39%, a viability, T/C [29] of 34.7% and a viability, T/C [30] of 18.5%. For the same compound, the viability, T/C [31] was 22.8%, the viability, T/C [32] was 22.4% and the viability, T/C [33] was 21.6%. For the same compound, the viability, T/C [34] was 13.1%, the viability, T/C [35] was 17.2% and the viability, T/C [36] was 5.33%. It also gave a viability, T/C [37] of 16.2%, a viability, T/C [38] of 14.6% and a viability, T/C [39] of 14.8%. It also gave a viability, T/C [40] of 9.87%, a viability, T/C [41] of 6.91% and a viability, T/C [42] of 3.67%.
